Measurements as given in patent US11318154B2 (priority 2019, dated 2022).

How the values were obtained:
[1] = test system: TcdB-induced disruption in colon epithelium; experiment: Mice colon ligation loop model with TcdB injection, H&E histological scoring; format: in vivo, C57BL/6 mice; conditions: intraperitoneal pre-treatment daily for two days, 10 μg TcdB in loop, 8 h
Procedure: The inventors used a mice colon ligation loop model to mimic C. difficile infection as TcdB is released into the lumen of the colon during C. difficile infection. All procedures were performed according to the animal protocol approved by the Cornell University IACUC (2017-0112). 6-8 weeks old of C57BL/6 mice were administrated with glycyrrhizin acid (50 mg/kg) daily via intraperitoneal injection two days before surgery. After overnight fasting, mice were anaesthetized and dissected via a midline laparotomy. A length of about 2 cm colon tissue was ligated and either saline or TcdB was injected into ligated loop for treatment. Mice were sutured and allowed to recover. After 8 hours, mice were euthanized and the ligated colon segments were excised and subjected to H&E staining. HE scoring was blindly assessed by a pathologist.

C. difficile VPI 10463 = experiment: C. difficile mice model (spore challenge), survival; format: in vivo; conditions: C57BL/6 mice, 1×10^5 C. difficile VPI10463 spores by gavage, daily injection
Procedure: To further determine the in vivo protective effect of glycyrrhizin on mice, a C. difficile mice model was established particularly the one as described in Guo, S. et al, (2015), Vaccine 33, 1586-1595. Briefly, C57BL/6 mice were given water mixed with a mixture of kanamycin (Sigma, MO) (0.4×10^−3 mg/L), gentamicin (Sigma, MO) (0.035×10^−3 mg/L), colistin (Sigma, MO) (850 U/mL), metronidazole (Sigma, MO) (0.215×10^−3 mg/L), and vancomycin (Sigma, MO) (0.045×10^−3 mg/L) for 3 days. All mice were then provided with regular autoclaved water for 2 days and administered with a single dose of clindamycin (Sigma, MO) (10 mg/kg) intraperitoneally 1 day before the C. difficile challenge. Mice were injected with glycyrrhizin daily on or before the day of C. difficile VPI 10463 spores challenge. All mice were then challenged with 1×10^5 of prepared C. difficile (strain VPI10463) spores by gavage feeding. The mice were intensively monitored daily after challenge for the presence and severity of diarrhea and other symptoms of illness or mortality. Body weight was measured once a day at the same time each day. Mice judged to be in a moribund state were euthanized by carbon dioxide.

SMILES: CC1(C)[C@@H](O[C@H]2O[C@H](C(=O)O)[C@@H](O)[C@H](O)[C@H]2O[C@@H]2O[C@H](C(=O)O)[C@@H](O)[C@H](O)[C@H]2O)CC[C@]2(C)[C@H]3C(=O)C=C4[C@@H]5C[C@@](C)(C(=O)O)CC[C@]5(C)CC[C@@]4(C)[C@]3(C)CC[C@@H]12 [glycyrrhizin]
- epithelial layer damage of ligated colon tissue (histology) [1]: less epithelial layer damages
- survival at the end of experiment (C. difficile VPI 10463): 100%
